# Laboratory results: US4262128A, “Nitrogen heterocycles” (Burroughs Wellcome Co., priority 1976, dated 1981)
# What was measured:
# [1] = tested on: electrically-induced arterial thrombosis; assay: Electrically-induced arterial thrombosis in anaesthetised rabbits; format: in vivo, rabbit; details: intravenous infusion 250 μg/min
# [2] = tested on: human platelet rich plasma (PRP); assay: Inhibition of ADP-stimulated platelet aggregation (Born aggregometer); format: cell-based
# Procedure: Aggregation of platelets in 1 ml. of fresh humam platelet rich plasma (PRP) was monitored in a Born aggregometer.
# The compound to be tested was added to the PRP at the desired concentration, and the resulting mixture incubated at 37° C. for 1 minute after which platelet aggregation was stimulated by the addition of adenosine diphosphate (ADP) to a concentration of 5 μM.
# The anti-aggregatory effect of the compound was assessed by measuring the percentage inhibition of platelet aggregation in the presence of the compound as compared when it was completely absent.
# [3] = tested on: aspirin-induced gastric ulceration; assay: Aspirin-induced gastric ulceration / lesions in rats; format: in vivo, rat; details: for reduction of aspirin-induced gastric lesions: general statement, no dose
# [4] = tested on: pentagastrin-induced gastric acid secretion; assay: Pentagastrin-induced gastric acid secretion in rats; format: in vivo, rat
# [5] = tested on: male normotensive rats Wistar (Charles River) strain; assay: Cardiovascular effects in rats (fall in blood pressure, anaesthetised normotensive rats); format: in vivo, rat; details: i.v.
# Procedure: Male normotensive rats Wistar (Charles River) strain, (250-350 g) were anesthetised (chloroform) prior to cannulation of the left femoral vein and anaesthesia maintained by intravenous chloralose (60 mg/kg). Pulsatile blood pressure was recorded from the left femoral artery with an electronic transducer (Bell and Howell Type 4-327 L221) and integrated heart rate was measured with a cardiotachometer triggered from the arterial pressure waves.
# The test compound was administered as a solution in physiological saline by intravenous injection via the femoral cannula. The responses recorded were allowed to return to the preinjection levels between successive administrations.
# vascular smooth muscle = assay: Relaxation of vascular smooth muscle; details: similar to prostaglandin A and E series; general statement
# [6] = tested on: histamine-induced broncho-constriction; assay: Histamine-induced broncho-constriction; format: in vivo, guinea-pig
# rat = assay: Cardiovascular effects in the rat (blood pressure and heart rate, with and without propranolol or atropine); format: in vivo
# dogs = assay: Urine volume in dogs, intravenous infusion; format: in vivo, dog
# [7] = Compound 14 (m.p. 96°-98°) 2 mg/kg i.v. with propranolol 3 mg/kg
# [8] = Compound 14 (m.p. 96°-98°) 2 mg/kg i.v., no propranolol
# [9] = Compound 14 (m.p. 96°-98°) 5 mg/kg i.v. with propranolol 3 mg/kg
# [10] = Compound 14 (m.p. 96°-98°) 5 mg/kg i.v., no propranolol
smiles,measurement,setting,value
"CCCCCC(O)CCN1C(=O)NC(=O)C1CCCCCCC(=O)O (stereo not shown) [Compound 2 (m.p. 76°-78°), 5-(6-Carboxyhexyl)-1-(3-hydroxyoctyl)hydantoin]",reduction of electrically-induced arterial thrombosis,[1],reduce electrically-induced arterial thrombosis
same,relative potency with respect to PGE1 (inhibition of platelet aggregation),[2],12.5 ×
"CCCCCC(=O)CCN1C(=O)NC(=O)C1CCCCCCC(=O)O (stereo not shown) [Example 88, 5-(6-carboxyhexyl)-1-(3-oxooctyl)hydantoin]",reduction of aspirin-induced gastric lesions,[3],reduce the formation of aspirin-induced gastric lesions
same,inhibition of pentagastrin-induced gastric acid secretion,"[4]; general statement, no dose",inhibit pentagastrin-induced gastric acid secretion
"CCCCC[C@H](O)/C=C/[C@H]1[C@H](O)CC(=O)[C@@H]1C/C=C\CCCC(=O)O [PGE2, reference compound]",Mean fall in blood pressure,[5]; 4 μg/kg,28 mmHg
same,Mean fall in blood pressure,[5]; 16 μ/kg,44 mmHg
"CC(C)(Cc1ccccc1)C(O)CCN1C(=O)NC(=O)C1CCCCCCC(=O)O (stereo not shown) [Example 1, 5-(6-carboxyhexyl)-1-(3-hydroxy-4,4-dimethyl-5-phenylpentyl)-hydantoin]",relaxation of vascular smooth muscle,vascular smooth muscle,relaxation of vascular smooth muscle
"CCCCC(C)(C)C(O)CCN1C(=O)NC(=O)C1CCCCCCC(=O)O (stereo not shown) [Compound 9, 5-(6-Carboxyhexyl)-1-(3-hydroxy-4,4-dimethyloctyl)hydantoin]",Mean fall in blood pressure,[5]; 3 mg/kg,22 mmHg
same,relaxation of vascular smooth muscle,vascular smooth muscle,relaxation of vascular smooth muscle
same,antagonism of histamine induced broncho-constriction (PGE1-like),"[6]; general statement, no dose",mimics the effect of PGE1 of antagonising histamine induced broncho-constriction
same,antagonism of histamine-induced broncho-constriction,"[6]; intravenous injection 50 μg/kg, anaesthetised guinea-pigs",completely anatagonise
"CCCCCCC(O)CCN1C(=O)NC(=O)C1CCCCCCC(=O)O (stereo not shown) [Compound 6, 5-(6-Carboxyhexyl)-1-(3-hydroxynonyl)hydantoin]",Mean fall in blood pressure,[5]; 3 mg/kg,40 mmHg
"CCCCCC(=O)CCN1C(=O)N(C)C(=O)C1CCCCCCC(=O)O (stereo not shown) [Compound 90, 5-(6-Carboxyhexyl)-3-methyl-1-(3-oxooctyl)hydantoin]",reduction of aspirin-induced gastric lesions,[3],reduce the formation of aspirin-induced gastric lesions
same,protection against aspirin-induced gastric ulceration,[3]; oral dose of 1 mg/kg,80%
same,inhibition of pentagastrin-induced gastric acid secretion,"[4]; general statement, no dose",inhibit pentagastrin-induced gastric acid secretion
"CC(C)(C)C(O)CCN1C(=O)NC(=O)C1CCCCCCC(=O)O (stereo not shown) [Compound 4 (m.p. 144°-146°), 5-(6-Carboxyhexyl)-1-(3-hydroxy-4,4-dimethylpentyl)hydantoin]",relative potency with respect to PGE1 (inhibition of platelet aggregation),[2],0.05 ×
"O=C(O)CCCCCCC1C(=O)NC(=O)N1CCC(O)C1CCCCC1 (stereo not shown) [Compound 14 (m.p. 96°-98°), 5-(6-Carboxyhexyl)-1-(3-hydroxy-3-cyclohexylpropyl)hydantoin]",relative potency with respect to PGE1 (inhibition of platelet aggregation),[2],16 ×
same,hypotensive effect in the rat,"rat; i.v., in words",substantial hypotensive effect
same,tachycardia accompanying the hypotension,"rat; i.v., in words",accompanied by tachycardia
"CCCCCC(O)CCN1C(=O)NC(=O)C1CCCCCCC(=O)O (stereo not shown) [Compound 2, 5-(6-Carboxyhexyl)-1-(3-hydroxyoctyl)hydantoin]",Mean fall in blood pressure,[5]; 10 μg/kg,14 mmHg
same,Mean fall in blood pressure,[5]; 1 mg/kg,42 mmHg
same,reduction of aspirin-induced gastric lesions,[3],reduce the formation of aspirin-induced gastric lesions
same,inhibition of pentagastrin-induced gastric acid secretion,"[4]; general statement, no dose",inhibit pentagastrin-induced gastric acid secretion
same,inhibition of pentagastrin-induced gastric acid secretion,"[4]; intravenous dose of 30 μg/kg, rats",completely inhibited
same,increase of urine volume,dogs,increase urine volume
"CCCCC[C@H](O)/C=C/[C@H]1[C@H](O)CC(=O)[C@@H]1CCCCCCC(=O)O [PGE1, reference compound]",inhibition at 0.015 µg/mL,"[2]; Homo sapiens, Platelet, 15 ng/ml, ADP 5 μM",33%
same,inhibition at 0.02 µg/mL,"[2]; Homo sapiens, Platelet, 20 ng/ml, ADP 5 μM",47%
same,inhibition at 0.03 µg/mL,"[2]; Homo sapiens, Platelet, 30 ng/ml, ADP 5 μM",63%
same,inhibition at 0.04 µg/mL,"[2]; Homo sapiens, Platelet, 40 ng/ml, ADP 5 μM",69%
"O=C(O)CCCCCCC1C(=O)NC(=O)N1CCC(O)C1CCC1 (stereo not shown) [Compound 11 (114°-116°), 5-(6-Carboxyhexyl)-1-(3-hydroxy-3-cyclobutylpropyl)hydantoin]",relative potency with respect to PGE1 (inhibition of platelet aggregation),[2],5.2 ×
"O=C(O)CCCCCCC1C(=O)NC(=O)N1CCC(O)C1CCCCC1 (stereo not shown) [Compound 14, 5-(6-Carboxyhexyl)-1-(3-hydroxy-3-cyclohexylpropyl)hydantoin]",Mean fall b.p. (±SD),rat; [7],28 ± 5
same,Mean rise hrt.rate (±S.D),rat; [7],6.5 ± 3
same,Mean fall b.p. (±SD),rat; [8],28 ± 6.5
same,Mean rise hrt.rate (±S.D),rat; [8],44 ± 7
same,Mean fall b.p. (±SD),rat; [9],27 ± 7.5
same,Mean rise hrt.rate (±S.D),rat; [9],11.5 ± 2.5
same,Mean fall b.p. (±SD),rat; [10],34 ± 3
same,Mean rise hrt.rate (±S.D),rat; [10],47.5 ± 2.5
"O=C(O)CCCCCCC1C(=O)NC(=O)N1CCC(O)C1CCCC1 (stereo not shown) [Compound 12 (m.p. 116-117°), 5-(6-Carboxyhexyl)-1-(3-hydroxy-3-cyclopentylpropyl)hydantoin]",inhibition at 0.0005 µg/mL,"[2]; Homo sapiens, Platelet, 0.5 ng/ml, ADP 5 μM",25%
same,inhibition at 0.001 µg/mL,"[2]; Homo sapiens, Platelet, 1.0 ng/ml, ADP 5 μM",51%
same,inhibition at 0.002 µg/mL,"[2]; Homo sapiens, Platelet, 2.0 ng/ml, ADP 5 μM",79%
same,inhibition at 0.004 µg/mL,"[2]; Homo sapiens, Platelet, 4.0 ng/ml, ADP 5 μM",94%
same,relative potency with respect to PGE1 (inhibition of platelet aggregation),[2],12.5 ×
"O=C(O)CCCCCCC1C(=O)NC(=O)N1CCCCOc1ccccc1 (stereo not shown) [Example 79b, 5-(6-carboxyhexyl)-1-(4-phenoxybutyl)hydantoin]",reduction of aspirin-induced gastric lesions,[3],reduce the formation of aspirin-induced gastric lesions
same,inhibition of pentagastrin-induced gastric acid secretion,"[4]; general statement, no dose",inhibit pentagastrin-induced gastric acid secretion
"CC(C)NCC(O)COc1cccc2ccccc12 (stereo not shown) [propranolol, reference compound]",effect of concurrent propranolol on hypotensive action of Compound 14,rat; concurrent dose of propranolol,without significantly effecting the hypotensive action
same,effect of concurrent propranolol on tachycardia caused by Compound 14,rat; concurrent dose of propranolol,considerably reduced the tachycardia
"CN1[C@@H]2CC[C@H]1C[C@@H](OC(=O)C(CO)c1ccccc1)C2 (stereo partly shown) [atropine, reference compound]",effect of concurrent atropine on hypotensive effect of Compound 14,rat; atropine 2 mg/kg i.v.,did not significantly affect
same,effect of concurrent atropine on tachycardiac effect of Compound 14,rat; atropine 2 mg/kg i.v.,did not significantly affect
